According to patent publication US8003602B2 (priority 2006, dated 2011):
Converted amounts (≈) assume the structure as drawn.

Columns and labels:
[1] = system: methicillin resistant S. aureus E710 (MRSA); assay type: in vivo, Balb/C mice; conditions: 5 mg/kg intravenously two hours post infection
Source text: (§1) The in-vivo potency was established by protection dose (PD) determinations of the compound PM181104 for its antibiotic activity in three animal models using either male or female Balb/C mice.
(§2) The models used were the general purpose efficacy testing models and organ/tissue specific efficacy testing models. The general purpose efficacy testing models used were systemic infection model (septicemia), and localized infection model (neutropenic thigh model). The Organ/Tissue specific infection models used for efficacy testing were kidney, lung infection, and skin abscess model.
Balb/C mice were infected subcutaneously with approximately 10^8 cfu of an overnight grown culture of methicillin resistant S. aureus E710 (MRSA). The bacteria were suspended in 1:1 mixture of 2% cytodex beads in normal saline (0.85% sodium chloride). PM181104 was prepared in cremophor-ethanol formulation as described in example 14. The solution was administered intravenously at 2.5 mg, 5 mg and 10 mg/kg doses, two hours post infection. Each experimental group consisted of six animals. Following abscess formation the animals were sacrificed and abscess harvested to determine the viable counts. […] Linezolid (manufactured by Glenmark Pharma Ltd; Batch no: K2005028) at 50 mg/kg dose.

B. cereus = assay: MIC, Macro-broth dilution method; assay type: cell-based, Bacillus cereus
Source text: (§3) The in-vitro potency was established by minimum inhibitory concentration (MIC) determinations of the compound PM181104 against bacterial strains, by using the Macro-broth dilution method as per National Committee for Clinical Laboratory Standards (2000) guidelines [Journal of Anti-microbial Chemotherapy, 2002, 50, 125-128 (Cross Reference 8: Methods for Dilution Antimicrobial Susceptibility Tests for Bacteria that Grow Aerobically-Fifth Edition: Approved Standard M7-A5. NCCLS, Wayne, Pa., USA)]. Unless stated otherwise, Mueller-Hinton broth was used as nutrient medium for the assay. Linezolid (manufactured by Glenmark Pharma Ltd; Batch no: K2005028) was used as known standard in all in-vitro experiments. For preparation of the stock solution the compound PM181104 was dissolved in chloroform (5% of the total required volume) and diluted using methanol (95% of the total required volume).

[2] = system: Streptococcus equinus 02 D5 Gr1; assay: MIC, Macro-broth dilution method; assay type: cell-based
Source text: as §3

E. faecalis 4073H = assay: MIC, Macro-broth dilution method; assay type: cell-based
Source text: as §3

E. faecalis (FH-1) = assay: MIC, Macro-broth dilution method; assay type: cell-based
Source text: as §3

B. subtilis = assay: MIC, Macro-broth dilution method; assay type: cell-based, Bacillus subtilis
Source text: as §3

B. subtilis ATCC 6633 = assay: MIC, Macro-broth dilution method; assay type: cell-based, Bacillus subtilis
Source text: as §3

E. faecium D-59 = assay: MIC, Macro-broth dilution method; assay type: cell-based, Enterococcus faecium
Source text: as §3

E. faecium (O2-D3IP1) = assay: MIC, Macro-broth dilution method; assay type: cell-based, Enterococcus faecium
Source text: as §3

E. faecium (VR-1) = assay: MIC, Macro-broth dilution method; assay type: cell-based, Enterococcus faecium
Source text: as §3

E. faecium D 18F = assay: MIC, Macro-broth dilution method; assay type: cell-based, Enterococcus faecium
Source text: as §3

E. faecium 4045H = assay: MIC, Macro-broth dilution method; assay type: cell-based, Enterococcus faecium
Source text: as §3

[3] = system: Staphylococcus aureus subsp. aureus ATCC 33591; assay type: cell-based; conditions: S. aureus MRSA ATCC 33591
Source text: as §3

E. faecalis ATCC 51575 = assay type: cell-based
Source text: as §3

E. faecalis, ATCC 51299 = assay type: cell-based
Source text: as §3

S. aureus E-710 = assay: Lung infection model; assay type: in vivo, Balb/C mice; conditions: 5 mg/kg intravenously at 24 and 36 hours post infection, lungs collected at 48 hours
Source text: as §1, §2
Balb/C mice were rendered neutropenic by intraperitoneally administering 200 mg/kg cyclophosphamide four days and two days prior to infection. On the day of infection, the mice were anesthetized and infected with S. aureus E-710 log-phase culture suspension having bacterial density of approximately 10^6 to 10^7 cfu/ml. 24 and 36 hours post infection the first and second respective dose of drug was administered intravenously. 48 hours post infection, the animals were humanely euthanized and their lungs were aseptically collected to determine the viable count of bacteria. In this model, PM181104 was tested at 5 mg/kg dose prepared in cremophor-ethanol formulation as described in example 14. Two standard antibiotics viz. Linezolid (80 mg/kg single dose at 24 hours post infection) and Vancomycin (110 mg/kg, two doses at 24 and 48 hours post infection) were used as positive controls.

S. aureus (3066) = assay: MIC, Macro-broth dilution method; assay type: cell-based, Staphylococcus aureus
Source text: as §3

S. aureus KEM-MRSA22 = assay: MIC, Macro-broth dilution method; assay type: cell-based, Staphylococcus aureus
Source text: as §3

S. aureus Bom-MRSA2 = assay: MIC, Macro-broth dilution method; assay type: cell-based, Staphylococcus aureus
Source text: as §3

S. aureus C1 3184 = assay: MIC, Macro-broth dilution method; assay type: cell-based, Staphylococcus aureus
Source text: as §3

S. aureus Lilavati-MRSA3 = assay: MIC, Macro-broth dilution method; assay type: cell-based, Staphylococcus aureus
Source text: as §3

S. aureus KEM-MRSA7 = assay: MIC, Macro-broth dilution method; assay type: cell-based, Staphylococcus aureus
Source text: as §3

S. aureus Rehaja-MRSA1 = assay: MIC, Macro-broth dilution method; assay type: cell-based, Staphylococcus aureus
Source text: as §3

S. aureus KEM-MRSA8 = assay: MIC, Macro-broth dilution method; assay type: cell-based, Staphylococcus aureus
Source text: as §3

S. aureus (E710) = assay: MIC, Macro-broth dilution method; assay type: cell-based, Staphylococcus aureus; conditions: S. aureus MRSA E710
Source text: as §3

S. aureus wien8 = assay: MIC, Macro-broth dilution method; assay type: cell-based, Staphylococcus aureus
Source text: as §3

S. aureus KEM-MRSA24 = assay: MIC, Macro-broth dilution method; assay type: cell-based, Staphylococcus aureus
Source text: as §3

S. aureus KEM-MRSA25 = assay: MIC, Macro-broth dilution method; assay type: cell-based, Staphylococcus aureus
Source text: as §3

S. aureus KEM-MRSA1 = assay: MIC, Macro-broth dilution method; assay type: cell-based, Staphylococcus aureus
Source text: as §3

## C=C(NC(=O)C(=C)NC(=O)C1CCCN1C(=O)c1nc(-c2ccc(-c3nc(C(=O)NC(=C)C(=O)NC(C)C(N)=O)cs3)c(-c3csc(C4Cc5nc(cs5)C(=O)NC(Cc5ccccc5)C5=NC(CS5)C(=O)NC(Cc5ccc(O)cc5)C(=O)N5CCCC5c5nc(cs5)C(=O)N4)n3)n2)oc1C)C(N)=O (stereo not drawn) [PM181104]
[1]
  decrease in bacterial count in abscess: approximately 1 log
B. cereus
  MIC: 0.00391 µg/mL (≈ 0.00258 µM)
[2]
  MIC: 0.01563 µg/mL (≈ 0.0103 µM)
E. faecalis 4073H
  MIC: 0.00781 µg/mL (≈ 0.00515 µM)
E. faecalis (FH-1)
  MIC: 0.00391 µg/mL (≈ 0.00258 µM)
B. subtilis
  MIC: 0.01563 µg/mL (≈ 0.0103 µM)
B. subtilis ATCC 6633
  MIC: 0.00781 µg/mL (≈ 0.00515 µM)
E. faecium D-59
  MIC: 0.00781 µg/mL (≈ 0.00515 µM)
E. faecium (O2-D3IP1)
  MIC: 0.00391 µg/mL (≈ 0.00258 µM)
E. faecium (VR-1)
  MIC: 0.00781 µg/mL (≈ 0.00515 µM)
E. faecium D 18F
  MIC: 0.00781 µg/mL (≈ 0.00515 µM)
E. faecium 4045H
  MIC: 0.00781 µg/mL (≈ 0.00515 µM)
[3]
  MIC: 0.03125 µg/mL (≈ 0.0206 µM)
E. faecalis ATCC 51575
  MIC: 0.03125 µg/mL (≈ 0.0206 µM)
E. faecalis, ATCC 51299
  MIC: 0.01563 µg/mL (≈ 0.0103 µM)
S. aureus E-710
  activity profile in lung infection: bacteriostatic activity
  difference in the bacterial count in the lungs as compared to untreated control animals: approximately 2 log
S. aureus (3066)
  MIC: 0.03125 µg/mL (≈ 0.0206 µM)
S. aureus KEM-MRSA22
  MIC: 0.00781 µg/mL (≈ 0.00515 µM)
S. aureus Bom-MRSA2
  MIC: 0.0625 µg/mL (≈ 0.0412 µM)
S. aureus C1 3184
  MIC: 0.0625 µg/mL (≈ 0.0412 µM)
S. aureus Lilavati-MRSA3
  MIC: 0.01563 µg/mL (≈ 0.0103 µM)
S. aureus KEM-MRSA7
  MIC: 0.01563 µg/mL (≈ 0.0103 µM)
S. aureus Rehaja-MRSA1
  MIC: 0.03125 µg/mL (≈ 0.0206 µM)
S. aureus KEM-MRSA8
  MIC: 0.01563 µg/mL (≈ 0.0103 µM)
S. aureus (E710)
  MIC: 0.03125 µg/mL (≈ 0.0206 µM)
S. aureus wien8
  MIC: 0.01563 µg/mL (≈ 0.0103 µM)
S. aureus KEM-MRSA24
  MIC: 0.00781 µg/mL (≈ 0.00515 µM)
S. aureus KEM-MRSA25
  MIC: 0.01563 µg/mL (≈ 0.0103 µM)
S. aureus KEM-MRSA1
  MIC: 0.03125 µg/mL (≈ 0.0206 µM)
